The values below come from US20260174680A1, “MAMMARY GLAND TISSUE HEALTH MAINTENANCE AGENT HAVING GABA AS ACTIVE INGREDIENT” (SANWA SHURUI CO., LTD., priority 2022, published 2026).

One series relates to MCF7 (ATCC HTB-22) cells. Kind of series: Cell test: E2-induced DNA double-strand break signals in MCF7 cells (P-Histone H2AX immunostaining). The format is cell-based. The conditions noted are these: 4 hours.
In series [1] the test system is mammary gland tissue. Kind of series: Animal experiment: E2-induced mammary gland tissue dysplasia and invasion in scid mice. In kind it is in vivo. The conditions noted are these: 25 days. On the procedure:
Ten-week-old Scid mice were intraperitoneally administered with 6 μg of E2 per day for 25 days, and were simultaneously intraperitoneally administered with 6 μg of Equol per day and/or were intraperitoneally administered with 0.5 mg (low) or 5 mg (high) of GABA per day. The fourth mammary gland was sampled 24 hours after the final administration, and photographs are shown of tissue observation by hematoxylin and eosin (H&E) staining (upper row) and Elastica van Gieson (EVG) staining (lower row).
This mouse model system that develops early stage breast cancer is an experimental system developed by the present inventors, and a system in which scid mice, which are a mouse strain with reduced DNA repair ability, are used to be administered estradiol (E2) intraperitoneally for […] to induce mammary gland tissue dysplasia. […] The present invention also uses this experimental system to evaluate the effects of GABA or the combined use of GABA and equol.
Ten-week-old scid mice were intraperitoneally administered PBS as a negative control group, 6 μg/day of E2 as a positive control group, 6 μg of E2+6 μg/day of equol (Eq) in experimental group 1, 6 μg of E2+0.5 mg/day of GABA in experimental group 2, 6 μg of E2+5 mg/day of GABA in experimental group 3, 6 μg of E 2+6 μg of Eq+0.5 mg of GABA in experimental group 4, and 6 μg of E 2+6 μg of Eq+5 mg of GABA in experimental group 5, with six mice in each group, every morning for 25 days. 24 hours after the final administration, the fourth mammary gland was sampled, and the tissue was observed by hematoxylin and eosin (H&E) staining and Elastica van Gieson (EVG) staining.
In addition, the frequency of occurrence of dysplasia in sections of the mammary gland tissue was evaluated.
Mouse (female): C. B-17/Icr-scid/scid Jel was purchased from CLEA Japan.
The E2 used was E2758 manufactured by SIGMA, the Equol (Eq) used was SML2147 manufactured by SIGMA, and the GABA used was A5835 manufactured by SIGMA.

In series [2] the test system is mammary gland tissue. The conditions noted are these: equol intraperitoneally, with estradiol administered (Non-Patent Literature 1); cited from earlier work.
Where [3] appears, read: experimental groups 1 to 5: Eq or GABA added to 6 μg/day E2 i.p.

Description for MCF7 (ATCC HTB-22) cells: After MCF 7 (ATCC HTB-22) cells were cultured, and the medium was removed, 200 μL of PBS adjusted to E2-free, 10 nM of E2, or 10 nM of E2+0.3 μg/mL to 1.1 μg/mL of GABA was added to each well, and the cells were incubated at 37° C. and 5% of CO2 for 4 hours. The cells were visualized by adding a primary histone antibody, and the DNA double-strand break signals per cell were measured by observation under a microscope.
The cultured cells used were MCF7 (ATCC HTB-22). MCF7 cells were cultured for 2 days to 3 days in phenol red-free RPMI 1640 medium containing 10% of fetal bovine serum and 1 nM of E2.
The cells were passaged into phenol red-free RPMI medium containing 10% of charcoal-stripped serum (Charcoal-Stripped FBS, Thermo Fisher) and 1 nM of E 2, and seeded into an 8-well plate (SCS-N28 MAS-Coat, Matsunami) at 400 μL/well. After 1 day to 2 days, the medium on the 8-well plate was removed and replaced with serum-free, phenol red-free RPMI medium, and the cells were starved by culturing for 1 day to align the cell cycle to the G1 phase. […]
The cells were observed under a microscope, the DNA double-strand break signals per cell were measured, and statistical analysis was performed using the Mann-Whitney U-test, with p<0.05 being considered to indicate a significant difference. […]
For each experiment section, DNA double-strand break signals were counted in 100 cells.

`NCCCC(=O)O` [GABA, γ-amino butyric acid]: in the series on MCF7 (ATCC HTB-22) cells (10 nM E2 + 1.1 μg/mL GABA, Mann-Whitney U-test, p<0.05), the “DNA damage (DNA double-strand break signals per cell)” value is reported as “significantly reduced DNA damage”. Further, the “number of DNA damages (DNA double-strand break signals per cell)” value in the series with MCF7 (ATCC HTB-22) cells (10 nM E2 + 0.3 to 1.1 μg/mL GABA) is on record as “tended to reduce the number of DNA damages”. The “frequency of occurrence of dysplasia (average of E2-only positive control taken as 100%)” value in the series with mammary gland tissue [1] (experimental group 2: 6 μg E2 + 0.5 mg/day GABA i.p.) turned out to be 44%; in the series with mammary gland tissue [1] (experimental group 3: 6 μg E2 + 5 mg/day GABA i.p.), 37%. For the same molecule, the “invasion in mammary gland tissue sections (H&E and EVG staining)” value (from here on “invasion”) in the series on mammary gland tissue [1] (setting [3]) is “no invasion was observed”.
As for `Oc1ccc([C@H]2COc3cc(O)ccc3C2)cc1` [Eq, equol, reference compound], the “mammary gland tissue dysplasia” value in the series with mammary gland tissue [2] is given as “mammary gland tissue dysplasia was inhibited”. In addition, in the series on mammary gland tissue [1] (experimental group 1: 6 μg E2 + 6 μg/day equol i.p., negative control 16%), the “frequency of occurrence of dysplasia (average of E2-only positive control taken as 100%)” value is “approximately 58%”. Further, the “invasion” value with mammary gland tissue [1] (setting [3]) was “no invasion was observed”.
In the case of `C[C@]12CC[C@@H]3c4ccc(O)cc4CC[C@H]3[C@@H]1CC[C@@H]2O` [E2, estradiol, reference compound], in the series with mammary gland tissue [1] (positive control: E2 only, 6 μg/day i.p.), the “invasion” value is on record as “showed invasion”.
